Where a name gives a salt, the structure may show the parent alone.
target: T1, Recombinant human Protein-tyrosine phosphatase1B (PTP1B) (Homo sapiens, UniProt P18031); experiment: PTP1B enzyme inhibition assay (pNpp substrate); type: biochemical; settings: inhibition of recombinant human PTP1B, pNpp 5 mM, 30 mins at 25° C; inhibitor concentration not given
T1 construct: Recombinant human Protein-tyrosine phosphatase1B (PTP1B) (amino acid 1-322 Biomol, USA); purchased Biomol, USA
T1 sequence (P18031 1-322): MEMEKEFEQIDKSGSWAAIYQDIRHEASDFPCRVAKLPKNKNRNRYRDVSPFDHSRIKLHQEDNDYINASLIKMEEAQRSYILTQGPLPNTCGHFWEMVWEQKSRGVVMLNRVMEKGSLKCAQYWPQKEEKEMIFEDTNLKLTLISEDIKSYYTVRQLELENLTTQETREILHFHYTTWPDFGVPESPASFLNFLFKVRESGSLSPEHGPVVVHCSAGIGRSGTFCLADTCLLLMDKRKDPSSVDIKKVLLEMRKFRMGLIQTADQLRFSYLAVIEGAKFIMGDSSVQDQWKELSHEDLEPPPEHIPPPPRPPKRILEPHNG
How it was run: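 Recombinant human PTP1B (0.016 μg/well) preincubated with compound 30 min at 25 °C in 50 mM HEPES pH 7.4, 1 mM EDTA, 1 mM DTT, 0.05% Igepal, 1% DMSO final. Reaction started with 5 mM pNpp, run 30 min at 25 °C; p-nitrophenol read at 410 nm.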

Compound	Activity Score
Cc1ccc(S(=O)(=O)NC(=O)Cc2ccc(NC3=NC(=O)C(=Cc4ccc(-c5ccc(F)cc5)cc4)S3)cc2)cc1 [Compound 215, N-(2-{4-[5-(4′-Fluoro-biphenyl-4-ylmethylene)-4-oxo-4,5-dihydro-thiazol-2-ylamino]-phenyl}-acetyl)-4-methyl-benzenesulfonamide sodium salt]	(+++) (+++ = >50% inhibition)
O=C(Cc1ccc(NC2=NC(=O)C(=Cc3ccc(-c4ccccc4)cc3)S2)cc1)NS(=O)(=O)c1ccc(C(F)(F)F)cc1.[Na] [Compound 219, N-{2-[4-(5-Biphenyl-4-ylmethylene-4-oxo-4,5-dihydro-thiazol-2-ylamino)-phenyl]-acetyl}-4-trifluoromethyl-benzenesulfonamide, sodium salt]	(+++) (+++ = >50% inhibition)
O=C(Cc1ccc(NC2=NC(=O)C(=Cc3ccc(-c4ccccc4)cc3)S2)cc1)NS(=O)(=O)c1cccs1.[Na] [Compound 223, Thiophene-2-sulfonic acid {2-[4-(5-biphenyl-4-ylmethylene-4-oxo-4,5-dihydro-thiazol-2-ylamino)-phenyl]-acetyl}-amide, sodium salt]	(++) (++ = 20-50% inhibition)
O=C(Cc1ccc(NC2=NC(=O)C(=Cc3ccc(-c4ccccc4)cc3)S2)cc1)NS(=O)(=O)c1ccc(F)cc1.[Na] [Compound 224, N-{2-[4-(5-Biphenyl-4-ylmethylene-4-oxo-4,5-dihydro-thiazol-2-ylamino)-phenyl]-acetyl}-4-fluoro-benzenesulfonamide, sodium salt]	(++) (++ = 20-50% inhibition)
CS(=O)(=O)NC(=O)Cc1ccc(NC2=NC(=O)C(=Cc3ccc(-c4ccccc4)cc3)S2)cc1.[Na] [Compound 225, N-{2-[4-(5-Biphenyl-4-ylmethylene-4-oxo-4,5-dihydro-thiazol-2-ylamino)-phenyl]-acetyl}-methanesulfonamide, sodium salt]	(+) (+ = 10-20% inhibition)
COc1ccc(S(=O)(=O)NC(=O)Cc2ccc(NC3=NC(=O)C(=Cc4ccc(-c5ccccc5)cc4)S3)cc2)cc1.[Na] [Compound 226, N-{2-[4-(5-Biphenyl-4-ylmethylene-4-oxo-4,5-dihydro-thiazol-2-ylamino)-phenyl]-acetyl}-4-methoxy-benzenesulfonamide, sodium salt]	(+++) (+++ = >50% inhibition)
CSc1ccc(-c2ccc(C=C3SC(Nc4ccc(CC(=O)NS(=O)(=O)c5ccc(C(F)(F)F)cc5)cc4)=NC3=O)c(F)c2)cc1.[Na] [Compound 239, N-(2-{4-[5-(3-Fluoro-4′-methylsulfanyl-biphenyl-4-ylmethylene)-4-oxo-4,5-dihydro-thiazol-2-ylamino]-phenyl}-acetyl)-4-trifluoromethyl-benzenesulfonamide sodium salt]	(+) (+ = 10-20% inhibition)
N#Cc1ccc(-c2ccc(C=C3SC(Nc4ccc(CC(=O)O)cc4)=NC3=O)cc2)cc1 [Compound 243, {4-[5-(4′-Cyano-biphenyl-4-ylmethylene)-4-oxo-4,5-dihydro-thiazol-2-ylamino]-phenyl}-acetic acid]	(+++) (+++ = >50% inhibition)
(4-{2-[5-(3-Benzyloxy-naphthalen-2-ylmethylene)-4-oxo-4,5-dihydro-thiazol-2-ylamino]-acetyl amino}-phenyl)-acetic acid [Compound 22]	(+++) (+++ = >50% inhibition)
(4-{5-[3-(3-Methoxy-benzyloxy)-naphthalen-2-ylmethylene]-4-oxo-4-4,5-dihydro-thiazol-2-ylamino}-phenyl)-sodium acetate [Compound 181]	(+) (+ = 10-20% inhibition)
[4-(N′-{4-Oxo-5-[4-(1H-tetrazol-5-yl)-benzylidene]-4,5-dihydro-thiazol-2-yl}-hydrazino)-phenyl]-acetic acid [Compound 34]	(+++) (+++ = >50% inhibition)
{3-[5-(1-Carbamoylmethyl-1H-indol-3-ylmethylene)-4-oxo-4,5-dihydro-thiazol-2-ylamino]-phenyl}-acetic acid [Compound 23]	(+++) (+++ = >50% inhibition)

From US20090088432A1, “Thiazolinones and Oxazolinones and their Use as Ptp1b Inhibitors” (priority 2005, published 2009)
